# Earlier results as cited in article PMC6915728 (Nature Communications, 2019).
# Where two headings read alike, the source gives them in different places. Ends that are not written are not given here.
# System: bacterial species in which the gene showed activity
# Settings: cited from earlier work
# [1] = Klebsiella pneumoniae, ref http://iai.asm.org/content/72/12/7107.full.pdf+html
# [2] = Klebsiella pneumoniae, ref http://www.ncbi.nlm.nih.gov/pmc/articles/PMC2798511/
# [3] = Staphylococcus aureus, SalmonellaTyphimurium, ref http://ac.els-cdn.com/S0022202X15369608/1-s2.0-S0022202X15369608-main.pdf?_tid=6fa51c80-693e-11e6-b18c-00000aacb362&acdnat=1471962936_8118358d97a056d7d78b5e8b4ca8d03b, https://www.sciencedirect.com/science/article/pii/S0928824401002917
# [4] = Staphylococcus aureus, Staphylococcus xylosus, ref http://www.jbc.org/content/274/13/8405.full.pdf
# [5] = Staphylococcus aureus, ref http://onlinelibrary.wiley.com/doi/10.1111/j.1365-2958.2007.05986.x/epdf
# [6] = Salmonella typhimurium, Escherichia coli, ref https://www.ncbi.nlm.nih.gov/pmc/articles/PMC3037666/, https://www.ncbi.nlm.nih.gov/pmc/articles/PMC4808223/
# [7] = Salmonella enterica serovar Typhimurium, ref http://www.microbiologyresearch.org/docserver/fulltext/micro/154/2/666.pdf?expires=1487718158&id=id&accname=guest&checksum=D8B884D02A8B2A8619216A48E0826377
# [8] = Salmonella typhimurium, Escherichia coli, ref https://www.ncbi.nlm.nih.gov/pmc/articles/PMC3037666/, https://www.ncbi.nlm.nih.gov/pmc/articles/PMC3837802/pdf/zam7770.pdf
# [9] = Staphylococcus aureus, ref https://www.ncbi.nlm.nih.gov/pubmed/14707093
# [10] = Staphylococcus epidermidis, ref http://jb.asm.org/content/178/2/531.full.pdf, https://www.ncbi.nlm.nih.gov/pmc/articles/PMC4239024/
# [11] = Salmonella typhimurium, ref https://www.ncbi.nlm.nih.gov/pmc/articles/PMC3037666/
# [12] = Neisseria meningitidis, Neisseria gonorrhoeae, ref http://www.ncbi.nlm.nih.gov/pmc/articles/PMC1196002/
# [13] = Neisseria meningitidis, ref https://www.ncbi.nlm.nih.gov/pmc/articles/PMC1196002/
compound,measurement,setting,value
"beta-defensin-1 (DHYNCVSSGGQCLYSACPIFTKIQGTCYRGKAKCCK; ends and bridges not checked; cysteine pairing not given here; UniProt P60022 33-68, looked up)",Gene that modulates bacterial susceptibility to the AMP,,pla
Human neutrophil peptide-1,Gene that modulates bacterial susceptibility to the AMP,[1],cps
human beta-defensin 2,Gene that modulates bacterial susceptibility to the AMP,[2],acrB
same,Gene that modulates bacterial susceptibility to the AMP,[3],hemB
nisin,Gene that modulates bacterial susceptibility to the AMP,[4],dltA (dlt operon)
same,Gene that modulates bacterial susceptibility to the AMP,[5],apsS
lactoferricin B,Gene that modulates bacterial susceptibility to the AMP,[3],hemB
Human alfa-defensin1,Gene that modulates bacterial susceptibility to the AMP,[4],dltA (dlt operon)
protegrin,Gene that modulates bacterial susceptibility to the AMP,"Salmonella typhimurium, Salmonella typhi, ref http://www.sciencedirect.com/science/article/pii/S009286740081750X",pagP
"dermcidin (SSLLEKGLDGAKKAVGGLGKLGKDAVEDLESVGKGAVHDVKDVLDSV; DCD-1; UniProt P81605 63-109, looked up)",Gene that modulates bacterial susceptibility to the AMP,[5],apsS
human neutrophil peptide-1,Gene that modulates bacterial susceptibility to the AMP,[2],acrB
same,Gene that modulates bacterial susceptibility to the AMP,[6],"amiA, amiC"
"human beta-defensin 1 (DHYNCVSSGGQCLYSACPIFTKIQGTCYRGKAKCCK; ends and bridges not checked; cysteine pairing not given here; UniProt P60022 33-68, looked up)",Gene that modulates bacterial susceptibility to the AMP,[2],acrB
CC[C@H](C)[C@H](NC(=O)CN)C(=O)NCC(=O)N[C@@H](C)C(=O)N[C@H](C(=O)N[C@@H](CC(C)C)C(=O)N[C@@H](CCCCN)C(=O)N[C@H](C(=O)N[C@@H](CC(C)C)C(=O)N[C@H](C(=O)N[C@H](C(=O)NCC(=O)N[C@@H](CC(C)C)C(=O)N1CCC[C@H]1C(=O)N[C@@H](C)C(=O)N[C@@H](CC(C)C)C(=O)N[C@H](C(=O)N[C@@H](CO)C(=O)N[C@@H](Cc1c[nH]c2ccccc12)C(=O)N[C@H](C(=O)N[C@@H](CCCCN)C(=O)N[C@@H](CCCNC(=N)N)C(=O)N[C@@H](CCCCN)C(=O)N[C@@H](CCCNC(=N)N)C(=O)N[C@@H](CCC(N)=O)C(=O)N[C@@H](CCC(N)=O)C(N)=O)[C@@H](C)CC)[C@@H](C)CC)[C@@H](C)O)[C@@H](C)O)C(C)C)C(C)C [melittin],Gene that modulates bacterial susceptibility to the AMP,[7],yejA
same,Gene that modulates bacterial susceptibility to the AMP,[8],cpxA (CpxA/CpxR)
Human alfa-defensin3,Gene that modulates bacterial susceptibility to the AMP,[4],dltA (dlt operon)
"Human alpha-defensin-2 (CYCRIPACIAGERRYGTCIYQGRLWAFCC; ends and bridges not checked; cysteine pairing not given here; UniProt P59665 66-94, looked up)",Gene that modulates bacterial susceptibility to the AMP,[9],sak
"human beta-defensin 3 (GIINTLQKYYCRVRGGRCAVLSCLPKEEQIGKCSTRGRKCCRRKK; ends and bridges not checked; cysteine pairing not given here; UniProt P81534 23-67, looked up)",Gene that modulates bacterial susceptibility to the AMP,[3],hemB
"Epidermin (IASKFICTPGCAKTGSFNSYCC; also: lantibiotic, thioether rings, places not given here; UniProt P08136 31-52, looked up)",Gene that modulates bacterial susceptibility to the AMP,[10],"epiE, epiF, epiG"
mellitin,Gene that modulates bacterial susceptibility to the AMP,[6],"amiA, amiC"
same,Gene that modulates bacterial susceptibility to the AMP,[11],tatA
"gallidermin (IASKFLCTPGCAKTGSFNSYCC; also: lantibiotic, thioether rings, places not given here; UniProt P21838 31-52, looked up)",Gene that modulates bacterial susceptibility to the AMP,[4],dltA (dlt operon)
same,Gene that modulates bacterial susceptibility to the AMP,[10],"epiE, epiF, epiG"
GIGKFLHSAKKFGKAFVGEIMNS [Magainin 2],Gene that modulates bacterial susceptibility to the AMP,"Salmonella enterica serovar Typhimurium, ref http://onlinelibrary.wiley.com/doi/10.1111/j.1365-2958.2004.04107.x/full",yqjA
same,Gene that modulates bacterial susceptibility to the AMP,"Salmonella enterica serovar Typhimurium, ref http://www.jbc.org/content/279/37/38618.long, https://onlinelibrary.wiley.com/doi/epdf/10.1111/j.1365-2958.2005.04553.x",slyA
same,Gene that modulates bacterial susceptibility to the AMP,"Salmonella enterica serovar Typhimurium, ref http://www.jbc.org/content/279/37/38618.long",ugtL
"human beta-defensin-1 (DHYNCVSSGGQCLYSACPIFTKIQGTCYRGKAKCCK; ends and bridges not checked; cysteine pairing not given here; UniProt P60022 33-68, looked up)",Gene that modulates bacterial susceptibility to the AMP,"Burkholderia cenocepacia, ref http://www.microbiologyresearch.org/docserver/fulltext/micro/155/9/2818.pdf?expires=1468919235&id=id&accname=guest&checksum=2CEA64BA8195145BE72C98BB20076628",zmpB
same,Gene that modulates bacterial susceptibility to the AMP,[1],cps
same,Gene that modulates bacterial susceptibility to the AMP,"Proteus mirabilis, ref http://www.ncbi.nlm.nih.gov/pmc/articles/PMC517467/pdf/0713-04.pdf",zapA
"Human beta-defensin3 (GIINTLQKYYCRVRGGRCAVLSCLPKEEQIGKCSTRGRKCCRRKK; ends and bridges not checked; cysteine pairing not given here; UniProt P81534 23-67, looked up)",Gene that modulates bacterial susceptibility to the AMP,[5],apsS
Colistin,Gene that modulates bacterial susceptibility to the AMP,"Acinetobacter baumannii, ref https://mbio.asm.org/content/4/3/e00021-13",pmrB
same,Gene that modulates bacterial susceptibility to the AMP,"Escherichia coli, Klebsiella pneumoniae, Pseudomonas aeruginosa, Kluyvera ascorbata, ref http://www.ncbi.nlm.nih.gov/pubmed/26603172, http://ac.els-cdn.com/S1473309915005332/1-s2.0-S1473309915005332-main.pdf?_tid=16a7f944-6944-11e6-8a9d-00000aab0f02&acdnat=1471965364_7f481026d1a49114e23adef4a6b4d1a9, https://www.ncbi.nlm.nih.gov/pmc/articles/PMC5119035/",mcr1
same,Gene that modulates bacterial susceptibility to the AMP,"Pseudomonas aeruginosa, ref https://onlinelibrary.wiley.com/doi/epdf/10.1111/j.1365-2958.2008.06152.x","mexA, mexB"
Nisin,Gene that modulates bacterial susceptibility to the AMP,"Bacillus subtilis, gene psdA (yvcR), […]",psdA (yvcR)
same,Gene that modulates bacterial susceptibility to the AMP,"Bacillus subtilis, gene psdB (yvcS), […]",psdB (yvcS)
same,Gene that modulates bacterial susceptibility to the AMP,"Lactococcus lactis, genes nisE, nisF, nisG, […]","nisE, nisF, nisG"
same,Gene that modulates bacterial susceptibility to the AMP,"Lactococcus lactis, genes ysaB, ysaC, […]","ysaB, ysaC"
same,Gene that modulates bacterial susceptibility to the AMP,"Listeria monocytogenes, […]",anrA (lmo2114)
same,Gene that modulates bacterial susceptibility to the AMP,"Staphylococcus aureus, […]","braA,braB"
"LL-37 (LLGDFFRKSKEKIGKEFKRIVQRIKDFLRNLVPRTES; Antibacterial peptide LL-37; UniProt P49913 134-170, looked up)",Gene that modulates bacterial susceptibility to the AMP,[12],"mtrC, mtrD, mtrE"
same,Gene that modulates bacterial susceptibility to the AMP,[13],lptA
same,Gene that modulates bacterial susceptibility to the AMP,[3],hemB
same,Gene that modulates bacterial susceptibility to the AMP,"Staphylococcus epidermidis, ref http://onlinelibrary.wiley.com/doi/10.1046/j.1462-5822.2004.00367.x/epdf",icaA(ica operon)
Human alpha-defensin-1,Gene that modulates bacterial susceptibility to the AMP,[9],sak
Magainin II,Gene that modulates bacterial susceptibility to the AMP,[4],dltA (dlt operon)
lactoferrin,Gene that modulates bacterial susceptibility to the AMP,[1],cps
bacitracin,Gene that modulates bacterial susceptibility to the AMP,"Listeria monocytogenes, ref https://www.ncbi.nlm.nih.gov/pmc/articles/PMC2944581/",anrA (lmo2114)
same,Gene that modulates bacterial susceptibility to the AMP,"Staphylococcus aureus, ref https://www.ncbi.nlm.nih.gov/pmc/articles/PMC3718698/","braA,braB"
"human defensin (human beta-defensin)-1 (DHYNCVSSGGQCLYSACPIFTKIQGTCYRGKAKCCK; ends and bridges not checked; cysteine pairing not given here; UniProt P60022 33-68, looked up)",Gene that modulates bacterial susceptibility to the AMP,[7],yejA
human beta-defensin-2,Gene that modulates bacterial susceptibility to the AMP,[7],yejA
colistin,Gene that modulates bacterial susceptibility to the AMP,"Acinetobacter baumannii, ref http://aac.asm.org/content/54/12/4971.full.pdf+html",lpxA
same,Gene that modulates bacterial susceptibility to the AMP,[3],hemB
polymyxin E,Gene that modulates bacterial susceptibility to the AMP,"Bordetella pertussis, ref http://www.ncbi.nlm.nih.gov/pmc/articles/PMC4136009/","lgmA, IgmB, IgmC"
magainin 2,Gene that modulates bacterial susceptibility to the AMP,[8],cpxA (CpxA/CpxR)
same,Gene that modulates bacterial susceptibility to the AMP,[6],"amiA, amiC"
same,Gene that modulates bacterial susceptibility to the AMP,[11],tatA
"protegrin-1 (RGGRLCYCRRRFCVCVGR; ends and bridges not checked; cysteine pairing not given here; UniProt P32194 131-148, looked up)",Gene that modulates bacterial susceptibility to the AMP,[12],"mtrC, mtrD, mtrE"
same,Gene that modulates bacterial susceptibility to the AMP,[13],lptA
same,Gene that modulates bacterial susceptibility to the AMP,,pgtE
CRAMP,Gene that modulates bacterial susceptibility to the AMP,,pgtE
